Data from patent US20110206638A1, “COMPOSITIONS AND METHODS FOR REDUCING THE MUTATION RATE OF VIRUSES” (priority 2010, published 2011).

How the values were obtained:
[1] = system: subgenomic HCV replicon of genotype 1b (Con1S1179I), NS5A region; test: NS5A sequencing of HCV RNA, nucleotide and amino acid substitution rates in Con1 replicon cells (Example 2); type: cell-based, Hepatitis C virus; conditions: for dn/ds / Ts/Tv / Percentage of sites showing positive selection / location of mutations in NS5A / Fold increase (Amino acid change per site) / Fold increase (Nt. change per site): 48 hrs; for dn/ds: SNAP, control 0.31; for Ts/Tv: control 3.3; for Percentage of sites showing positive selection: control 4.25%; for Amino acid change per site / Nt. change per site: Con1 replicon cells, once daily for 48 hrs, T7 baseline subtracted; for Nt. change per site: ethanol 0.5% v/v, BSO 20 μM, H2O2 100 μM, acetaldehyde 10 μM; for location of mutations in NS5A: SNAP plot against codons; for percentage of nucleotide substitutions A→C / percentage of nucleotide substitutions A→G / percentage of nucleotide substitutions A→U / percentage of nucleotide substitutions C→A / percentage of nucleotide substitutions C→G / percentage of nucleotide substitutions C→U / percentage of nucleotide substitutions G→A / percentage of nucleotide substitutions G→C / percentage of nucleotide substitutions G→U / percentage of nucleotide substitutions U→A / percentage of nucleotide substitutions U→C / percentage of nucleotide substitutions U→G: of all nt. substitutions in the group; for Fold increase (Amino acid change per site) / Fold increase (Nt. change per site): over control
Description: Huh7 cell clones (SgPC2 cells) supporting continuous replication of a subgenomic HCV replicon of genotype 1b (Con1S1179I sequence) were used (Choi J. et al. (2004) Hepatology 39:81-89; Blight K J et al. (2000) Science 290:1972). Subgenomic replicons support the HCV RNA genome replication by the viral replicase but no virus is formed. The in vitro transcription, transfection of the viral RNA, and Huh7 human hepatoma cell culture were performed as described (Choi J. et al. (2004) Hepatology 39:81-89; Blight K J et al. (2000) Science 290:1972). All biochemicals including ethanol (molecular biology grade), acetaldehyde, BSO, H2O2, dipyridal, and GSH ethyl ester were obtained from SigmaAldrich except PIH, which was synthesized according to published methods (Kicic A et al., (2001) Cancer 92: 3093-3110; Ponka P. et al., (1979) FEBS Lett 97: 317-321).
Total RNAs were collected using Trizol (Invitrogen). Then, the NS5A region (nt. 4612 to 6013 of Con1 replicon) was reverse transcribed/amplified with AccuScript High Fidelity RT-PCR System (Agilent). The reverse primer used for reverse transcription and PCR amplification was 5′-[…]-3′ (SEQ ID NO: 1), and the forward primer was 5′-[…]-3′ (SEQ ID NO: 2). The XbaI and HindIII restriction enzyme sites are underlined. The cDNA products were cloned into pUC19 via HindIII and XbaI sites and sequenced at the Joint Genome Institute (Livermore, Calif.) and University of California Berkeley Sequencing (Berkeley, Calif.). Sequences were aligned against Con1(S1179I) sequence, using BioEdit/MEGA 4.0 Molecular Evolutionary Genetics Analysis software. Cumulative synonymous and nonsynonymous mutations were computed using Synonymous Nonsynonomous Analysis Program (SNAP; www.hcv.lanl.gov). The […] ratio was calculated using SNAP. Amino acid substitution trends were analyzed by position with MutationCounter, a mutation counting program, developed for this project. The sequences were compared with 1,212 genotype 1b NS5A sequences pooled from the Lawrence Livermore HCV sequence database (www.hcv.lanl.gov) which included sequences from the European, Asian, and Russian databases. Sequences harboring gaps, undetermined nucleotides, or incomplete NS5A sequences were removed prior to the analysis.
To test whether ethanol can affect the HCV RNA sequence, Con1 replicon cells that support genotype 1b subgenomic HCV RNA replication were incubated with ethanol (0.5% v/v), BSO (20 μM), H2O2 (100 μM), or acetaldehyde (10 μM) once daily for 48 hrs with a change of the cell culture medium at the time of each treatment. Acetaldehyde and H2O2 are generated during hepatic metabolism of ethanol. BSO, by inhibiting GSH biosynthesis, mimics GSH depletion seen in hepatitis C patients. GSH participates in detoxification reactions that remove reactive species such as H2O2 and acetaldehyde. Thus, by decreasing GSH, BSO also amplifies the effects of endogenous ROS and RNS, allowing one to test the effects of endogenous ROS/RNS. Then, the RNA was collected, and the NS5A region corresponding to nt. 4612 to 6013 of Con1 replicon was reverse transcribed using AccuScript reverse transcriptase and amplified with PfuUltra (Agilent). PfuUltra is a high fidelity DNA polymerase with an error rate of 4.3×10^−9; AccuScript reverse transcriptase has an error rate of 1.61×10^−7. Then, the cDNA products were cloned into pUC19 and sequenced by the Sanger method.

Huh7 cells = type: cell-based, human
Description: Total RNA was isolated using Trizol (Invitrogen) and analyzed for 8-OH-guanosine (8-OH-G) by northwestern, as described (Shan X et al. (2003) J. Neurosci. 23:4913-4921). Briefly, RNA was size-fractionated by agarose gel electrophoresis, transferred to a nylon membrane, blocked with 1% BSA, incubated sequentially with monoclonal anti-8-OH-G/dG antibodies (QED Bioscience, Inc.) and then with goat anti-mouse HRP-conjugated secondary antibody (Santa Cruz Biotechnology), and signals were detected, using an ECL kit (Amersham). In addition, RNA was digested with nuclease P1 (Sigma, US Biological) and alkaline phosphatase (Promega) and analyzed for 8-OH-G content using RNA Damage Kit (Cell Biolabs, Inc.), following manufacturer's protocols.
GO continuously generates H2O2 extracellularly, in the presence of glucose and can be used to mimic inflammation and continued oxidative stress seen during chronic hepatitis C. […] An in vitro-oxidized control Huh7 RNA (incubated with H2O2+cytochrome C) was used as a positive control (FIG. 3A). […] NiCl2 was used as a positive control genotoxin in FIGS. 3B and 3C.

Row | Structure (SMILES) | dn/ds [1] | Ts/Tv [1] | Percentage of sites showing positive selection [1] [%] | Amino acid change per site [1] | Nt. change per site [1] | location of mutations in NS5A [1] | percentage of nucleotide substitutions A→C [1] [percentage] | percentage of nucleotide substitutions A→G [1] [percentage] | percentage of nucleotide substitutions A→U [1] [percentage] | percentage of nucleotide substitutions C→A [1] [percentage] | percentage of nucleotide substitutions C→G [1] [percentage] | percentage of nucleotide substitutions C→U [1] [percentage] | percentage of nucleotide substitutions G→A [1] [percentage] | percentage of nucleotide substitutions G→C [1] [percentage] | percentage of nucleotide substitutions G→U [1] [percentage] | percentage of nucleotide substitutions U→A [1] [percentage] | percentage of nucleotide substitutions U→C [1] [percentage] | percentage of nucleotide substitutions U→G [1] [percentage] | Fold increase (Amino acid change per site) [1] [fold] | other results
1 | CCCCS(=N)(=O)CCC(N)C(=O)O [BSO, L-buthionine-S,R-sulfoximine] | 0.72 | 3.3 | 12.3 | 3.24×10^−3 amino acid change per site | 1.20×10^−3 nt. change per site | clustered in the C-terminal half of NS5A | 1.28 | 24.36 | 2.56 | 3.85 | 5.13 | 8.97 | 16.67 | 3.85 | 3.85 | 0 | 29.49 | 0 | 11.6 | –
2 | CCO [Ethanol, ethanol] | 1.05 | 6.8 | 12.3 | 4.97 × 10^−3 amino acid change per site | 1.71 × 10^−3 nt. change per site | clustered in the C-terminal half of NS5A | 1.30 | 25.97 | 2.60 | 0 | 0 | 18.18 | 12.99 | 6.49 | 2.60 | 0 | 29.87 | 0 | 17.8 | Nt. change per site ([1]; listed as ethanol): 1.71×10^−3 nt. change per site; Amino acid change per site ([1]; listed as ethanol): 4.97×10^−3 amino acid change per site; Fold increase (Nt. change per site) [1]: 5.9 fold; Fold increase (Amino acid change per site) ([1]; listed as ethanol): ~18 fold; Fold increase (Nt. change per site) ([1]; listed as ethanol): about 6 fold; 8-OHG in Huh7 cells (Huh7 cells): elevated
